According to patent publication US9499462B2, “Isolated compounds from turmeric oil and methods of use” (Cognition Therapeutics, Inc., priority 2011, dated 2016):
“Also recorded” adds a separate entry of the source.

How the values were obtained:
[1] = system: Abeta oligomer-induced synapse loss; assay: Abeta oligomer-induced synapse loss in vitro; type: cell-based
[2] = system: Abeta oligomer effects on memory; assay: Fear conditioning assay (contextual memory, Abeta oligomer administration); type: in vivo, mice
Method: CT0109 and CT0093 were tested in an animal model of a memory-dependent behavioral task known as fear conditioning. The study protocol was designed based on published protocols (See e.g. Puzzo D, Privitera L, Leznik E, Fa M, Staniszewski A, Palmeri A, Arancio O. Picomolar amyloid-beta positively modulates synaptic plasticity and memory in hippocampus. J Neurosci. 2008 Dec. 31; 28(53):14537-45.). The formation of contextual memories is dependent upon the integrity of medial temporal lobe structures such as the hippocampus. In this assay mice were trained to remember that a particular salient context (conditioned stimulus; CS) is associated with an aversive event, in this case a mild foot shock (the unconditioned stimulus, US). Animals that show good learning will express an increase in freezing behavior when placed back into the same context. This freezing is absent in a novel context. Increased freezing in the context indicates strong hippocampal-dependent memory formation in animals. Memory tested in Fear Conditioning is sensitive to elevations of soluble Aβ. […] The fear condition model for memory was performed as described herein.

[3] = system: 9 month old male Swe/Ldn mice; assay: Behavioral efficacy in transgenic Swe/Ldn mice (osmotic minipump); type: in vivo; settings: transgenic mouse model of AD
Method: CT0093 was tested for its ability to reverse deficits in 9 month old male Swe/Ldn mice in a pilot study at 1 and 10 mg/kg/day via the osmotic minipump method.
Subcutaneous administration of 10 mg/kg/day of CT0093 (shown in gray squares and solid gray line and solid bar) achieved brain concentrations of 540 nM (FIG. 9).

[4] = system: Abeta oligomer-induced acceleration of exocytosis (membrane trafficking) in primary neurons; assay: Exocytosis / MTT membrane trafficking assay in mature primary neurons treated with Abeta oligomers; type: cell-based, Sprague-Dawley rat; settings: for block of Abeta oligomer effects on membrane trafficking (in words): primary neurons in vitro; for efficacy relative to the parent CT0093 (in words) / potency relative to the parent CT0093 (in words): 21DIV primary neurons
Method: Primary neurons from E18 Sprague-Dawley rat embryos are plated at optimized concentrations in 384 well plates in NB media (Invitrogen). Neurons are maintained in cultures for 3 weeks, with twice weekly feeding of NB media with N2 supplement (Invitrogen). A test compound is added to cells, followed by addition of Vehicle or Abeta oligomer preparations (1.5 μM), and incubated for 1 to 24 hr. at 37° C. in 5% CO2. MTT reagent (3-(4,5-dimethylthizaol-2-yl)-2,5diphenyl tetrazolium bromide) (Roche Molecular Biochemicals) is reconstituted in phosphate buffered saline to 5 mg/mL. 10 μL of MTT labeling reagent is added to each well and incubated at 37° C. for 1 h, then imaged.
Each assay plate is formatted so that compounds are tested with and without Abeta on each plate.
Similar procedures for exocytosis assays/MTT assays can be found in the literature. See e.g., Liu Y, et. al., Detecting bioactive amyloid beta peptide species in Alzheimer's disease. J. Neurochem. 2004 November; 91(3):648-56; Liu Y, and Schubert D. “Cytotoxic amyloid peptides inhibit cellular 3-(4,5-dimethylthiazol-2-yl)-2,5-diphenyltetrazolium bromide (MTT) reduction by enhancing MTT formazan exocytosis.” J. Neurochem. 1997 December; 69(6):2285-93; and Liu Y, and Schubert D. “Treating Alzheimer's disease by inactivating bioactive amyloid beta peptide” Curr. Alzheimer Res. 2006 April; 3(2):129-35. Abeta 1-42 oligomers made according to published methods [See e.g. Dahlgren et al., “Oligomeric and fibrillar species of amyloid-beta peptides differentially affect neuronal viability” J Biol. Chem. 2002 Aug. 30; 277(35):32046-53. Epub 2002 Jun. 10. LeVine H 3rd. “Alzheimer's beta-peptide oligomer formation at physiologic concentrations” Anal Biochem. 2004 Dec. 1; 335(1):81-90; Shrestha et. al, “Amyloid beta peptide adversely affects spine number and motility in hippocampal neurons” Mol Cell Neurosci. 2006 November; 33(3):274-82. Epub 2006 Sep. 8; Puzzo et al., “Amyloid-beta peptide inhibits activation of the nitric oxide/cGMP/cAMP-responsive element-binding protein pathway during hippocampal synaptic plasticity” J. Neurosci. 2005 Jul. 20; 25(29):6887-97; Barghorn et al., “Globular amyloid beta-peptide oligomer—a homogenous and stable neuropathological protein in Alzheimer's disease” J. Neurochem. 2005 November; 95(3):834-47. Epub 2005 Aug. 31; Johansson et al., Physiochemical characterization of the Alzheimer's disease-related peptides A beta 1-42 Arctic and A beta 1-42 wt. […] Negative controls include vehicle-treated neurons as well as neurons treated with 28 μM concentrations of memantine. […] These controls, on each plate, serve as normalization tools to calibrate assay performance on a plate-by-plate basis.
Primary neuronal cultures are prepared as follows: Optimal cell density of primary neuronal cultures is determined based on cellular response to Abeta oligomers using the exocytosis assay as a readout, and immunohistochemical analysis of the relative proportion of glia to neurons in the cultures. Cultures are monitored on a weekly basis with immunohistochemistry and image processing-based quantification to monitor the percentage of the cultures that are neurons vs. glia (Glial cells). Cultures containing more than 20% glia (positive for GFAP) vs. neurons (staining positively with antibodies directed against MAP2) at the screening age of 21 days in vitro (21 DIV) are rejected.
Toxicity is monitored in each image-based assay via quantification of nuclear morphology visualized with the DNA binding dye DAPI (Invitrogen). Nuclei that are fragmented are considered to be in late stage apoptosis (Majno and Joris '95). Peptide lots producing unusual peptide size ranges or significant toxicity at a standard 1.5 uM concentration on neurons are rejected.

[5] = in vivo; settings: rat, 1 mg/kg
Method: PK studies are performed at CEREP Inc. of Redmond Wash., according to their standard protocols: The plasma samples were processed using acetonitrile precipitation and analyzed by HPLC-MS or HPLC-MS/MS. Peak areas were recorded, and the concentrations of the test compound in the unknown plasma samples were determined using the respective calibration curve. The reportable linear range of the assay was determined, along with the lower limit of quantitation (LLQ).
Pharmacokinetic studies were performed according to the following protocols: The plasma samples were processed using acetonitrile precipitation and analyzed by HPLC-MS or HPLC-MS/MS. Peak areas were recorded, and the concentrations of the test compound in the unknown plasma samples were determined using the respective calibration curve. The reportable linear range of the assay was determined, along with the lower limit of quantitation (LLQ).

COc1cc(CCC(C)NCc2ccc(C(F)(F)F)cc2)ccc1O (stereo not drawn) [CT0109, 4-(3-(4-(trifluoromethyl)benzylamino)butyl)-2-methoxyphenol]
block of Abeta oligomer-induced synapse loss [1]: inhibition of processed product of amyloid precursor protein-mediated synapse loss | block of Abeta oligomer effects on memory ([2]; 2 pmol dose, given prior to Abeta oligomers (200 nM), mice): blocked oligomer effects on memory; also recorded: completely blocked the effect of Abeta on memory | adverse behavioral changes ([2]; any dose): No adverse behavioral changes were observed | effect of compound alone on memory ([2]; without Abeta): No effect of compound alone was observed | improvement of memory / cognitive performance of transgenic mice [3]: capable of improving cognitive performance in the transgenic model of AD; also recorded: improve memory deficits in a transgenic mouse model of Alzheimer's disease | EC50 ([4]; Rattus norvegicus, Primary neuron, MTT assay, primary neurons, read-out: EC50, block of Abeta oligomer-induced acceleration of exocytosis / oligomer effects on membrane trafficking): 7 µM | block of Abeta oligomer effects on membrane trafficking (in words) [4]: effective in both prevention; also recorded: effective at stopping Abeta oligomer mediated effects on membrane trafficking | pharmacological competition with Abeta oligomers ([4]; synthetic and human Alzheimer's patient-derived oligomers): exhibit pharmacological competition with both synthetic (A, B) and human Alzheimer's patient-derived (C, D) oligomers

CC1=CC=C(C(C)CC(CC(C)(C)O)NCC(C)C)CC1 (stereo not drawn) [CT1296, 4-(isobutylamino)-2-methyl-6-(4-methylcyclohexa-1,3-dienyl)heptan-2-ol]
clearance [5]: 120 ± 13 mL/min/kg | half-life [5]: 1.15 ± 0.0833 h | efficacy relative to the parent CT0093 (in words) [4]: somewhat less efficacious | potency relative to the parent CT0093 (in words) [4]: maintained the potency of the parent compound | efficacy relative to the parent CT0093 (in words) ([4]; listed as CT01296): slightly less efficacious

Cc1ccc(C(C)CC(CC(C)(C)O)NCC(C)C)cc1 (stereo not drawn) [CT1297, 4-(isobutylamino)-2-methyl-6-p-tolylheptan-2-ol]
clearance [5]: 101 ± 12 mL/min/kg | half-life [5]: 2.68 ± 1.62 h | potency relative to the parent CT0093 (in words) [4]: significantly less potent than the parent CT0093 | fold less potent than the parent CT0093 ([4]; primary screening assay): ~2 fold

C[C@]12N[C@H](Cc3ccccc31)c1ccccc12 [MK-801, reference compound]
block of Abeta oligomer effects on membrane trafficking (in words) [4]: none were active

C[N+](C)(C)CCCCCC[N+](C)(C)C [hexamethonium bromide, reference compound]
block of Abeta oligomer effects on membrane trafficking (in words) [4]: none were active

CC12CC3CC(C)(C1)CC(N)(C3)C2 [memantine, reference compound]
inhibition at 28 µM ([4]; Rattus norvegicus, Primary neuron, 28 μM memantine, plate control, read-out: inhibition of oligomer effects): 50%

O[C@H]1[C@H](O)[C@@H](O)[C@H](O)[C@@H](O)[C@@H]1O [scyllo-inositol (AZD-103), scyllo-inositol, reference compound]
block of Abeta oligomer effects on membrane trafficking (in words) [4]: none were active
